Results reported in patent US6815461B1, “Method of inhibiting retroviral integrase” (The University of North Carolina at Chapel Hill, priority 1994, dated 2004).
Where two headings read alike, the source gives them in different places.

How the values were obtained:
Magic cells [1] = assay: Toxicity assay (XTT) on the cell lines used to measure virus infectivity; assay type: cell-based; conditions: human, 2 days
Procedure: (§1) Three different toxicity tests were performed on the cell lines used to measure virus infectivity.
(§2) The initial test for toxicity utilized the XTT Assay as described by Weislow et al, J. Natl. Cancer Inst. 81, 577-586 (1989). This is the standard assay used originally to measure cell toxicity by potential reverse transcriptase inhibitors. Briefly, cells were grown to cells/ml and drug dilutions were added to the medium. After two days incubation, XTT reagent is added and incubation is continued for 4 h at 37° C. Following incubation, the plates are read at 450 minus 650 nm (the 650 value is the backround value which is automatically subtracted) with controls of media+XTT reagent without cells, and cells+media without reagent. Also a control of cells+media+XTT reagent was run for each plate. Medium without phenol red was employed to minimize background color as the XTT reagent goes from colorless (unreduced) to orange (reduced). The XTT reagent was freshly prepared on the day of assay as follows: 1 mg/ml of XTT in […] phenazine methosulfate. The phenazine methosulfate solution was prepared ahead of time and stored at 4° C. in a dark bottle. The XTT reagent is added to the microtiter wells at 24 ul per 100 ul of medium. The O.D. was measured on a Vmax plate reader from Molecular Devices Co. with data reduction. Results are expressed as percent of untreated controls. The least toxic compounds were Compounds A, B, and F with toxicities values at 500 μM or greater.
(§3) The third test for cell toxicity assessed growth rate in the presence of the test compound versus a control culture. Magic cells were grown over a period of 15 days with or without various dilutions of test compound. Aliquots were removed every other day and the cells were counted in a hemocytometer. The results are set forth in FIG. 2 herein (see also Table 2 below).

[2] = as above; assay type: cell-based; conditions: human
Procedure: as §1, §2, §3

HIV-1 integrase = target: T1, HIV-1 integrase (Human immunodeficiency virus type 1 group M subtype B, UniProt P04585); assay: Integrase inhibition assay (cleavage and strand transfer of 32P-labelled HIV-1 U5/U3 oligonucleotide substrate); assay type: biochemical
T1 construct: using the integrase coding domain from the HXB2 clone of HIV-1 DNA; made in house; host or cells: E. coli
Procedure: Integrase was overproduced in E. coli from an inducible plasmid containing the integrase sequence under control of a lacI-regulated T7 polymerase using the integrase coding domain from the HXB2 clone of HIV-1 DNA (L. Ratner et al, AIDS Res. Hum. Retroviruses 3, 57-69 (1987)), pT7fll-IN. A one liter culture at an O.D. of 0.6 was induced by the addition of IPTG to 0.5 mM. After three hours, the cells were harvested by centrifugation and the pellets were stored at −70° C.
The integrase protein was purified by a modification of the method of Sherman and Fyfe (P. Sherman et al, Proc. Natl. Acad. Sci. USA 87, 5119-23 (1990)). The cells were lysed by thawing in a buffer (50 mM Tris-HCl pH 7.5, 5 mM dithiothreitol, 1 mM EDTA, 1 mg/ml lysozyme) on ice at 6 ml/g bacterial pellet for 30 minutes, and then incubating at 37° C. for 5 minutes. The lysate was centrifuged at 12,000×g for one hour. The pellets were resuspended in 50 mM Tris-HCl, pH 7.5, 1 mM dithiothreitol, 1 mM EDTA, 1 M NaCl (4 ml/g original bacteria). The homogenate was stirred for 30 minutes at 4° C. and recentrifuged for 30 minutes at 12,000×g.
The supernatant was made 0.8 M in ammonium sulfate by the slow addition of powder with stirring over a 30 minute period. The extract was then centrifuged to remove any precipitate and applied to a phenyl sepharose column. After a 50 ml wash with high salt buffer (50 mM Tris-HCl, 1 mM EDTA, 5 mM DTT, 2 M NaCl), the protein was eluted with a gradient from high salt to O salt buffer containing 10% (weight/vol) glycerol and further purified through a G75 Sephadex column to remove background nuclease. A one liter culture generates enough integrase activity to perform over a thousand drug inhibition assays.
Cleavage of specific sites is assessed as described in Sherman et al., supra, except that the assay buffer was the same as that reported by Chow et al, Science 255, 723-6 (1992). Single 20 mer oligonucleotides corresponding to either the U5 or U3 ends of HIV-1 are end-labeled with ^32P, annealed with its complement, purified, and used under the same conditions as described above for the endonuclease assay. Reaction products are denatured with formamide, electrophoresed through 20% denaturing polyacrylamide gels and visualized by autoradiography. Both cleavage and ligation activity can be assessed from one gel. To assess the ligation activity alone, “precleaved” substrate that had the −2 cleavage artificially produced by using a radiolabelled 18 mer oligonucleotide was also used for some experiments.
Integrase overproduced in E. coli was purified as described above in accordance with Sherman et al, supra, and used in drug inhibition assays. […] Dilutions of the inhibitor compounds described in Example 1 above were mixed with substrate before the addition of enzyme. The Assay was the same as described in Example 2 and used the substrate described in Example 2. Each assay was performed in duplicate. Radioactivity in bands on dried gels were quantitated with a Phosphor imager to assess drug effects on both the cleavage, nuclease, and ligation products. The IC50 values for integrase inhibition were calculated for both the cleaving and joining parts of the integrase reaction after determining the % inhibition of the control reaction for a series of drug concentrations. Compounds A, B, C, and D had similar effects on integrase activity. Compound A, however, caused aggregation of the substrate starting at relatively low concentrations (10 μM), complicating its assessment.

HIV-1 [3] = assay: Magic cell HIV-1 inhibition assay; assay type: cell-based, HIV-1 strain HXB2; conditions: Human immunodeficiency virus 1; Magic cells, infectious units with or without drug, 4 h pretreatment, read two days later
Procedure: Cell lines used were CEM cells, a human T-cell lymphona cell line, A. Kaplan et al, J. Virol. 67, 4050-5 (1993), and Magic cells, J. Kimpton et al, J. Virol. 66, 2232-2239 (1992). The CEM cells were grown in RPM1-1640 medium supplemented with 5% FCS. The Magic Cells, a HELA derivative, were grown in DMEM/H supplemented with 5% FCS, G418 ([…]) and Hygromycin ([…]). The HIV isolate was strain HXB2, originally from Lee Ratner in the laboratory of Robert Gallo at the National Institutes of Health.
The magic cell assay described by Kimpton et al., supra, was used as described. This assay identifies individual cells infected with HIV-1 by the expression of tat, which transactivates an endogenous copy of the HIV-1 LTR linked to the lac2 reporter gene after integration, inducing β-galactosidase expression when x-gal is added to the cell medium. Any cell with integrated HIV-1 will turn blue. Thus, this assay provides a convenient way to determine the effect of HIV inhibitors at any early step up through the expression of tat, including the inhibition of integration.
The magic cells are plated in twelve-well plates one day prior to infection. The standard assay involves infection with approximately 200 infectious units of HIV-1. This gives an approximately 20 to 1 ratio of signal to background and sufficient numbers of infectious events to quantitate dim effects. The cells are pretreated with drug for 4 hours prior to virus infection, and virus adsorption takes place for 1 hour. The cells are washed with plain medium, and then medium with inhibitor is placed back on the cells. Two days later the cells are fixed after integration with x-gal, the indicator reagent for β-galactosidase production. The number of β-galactosidase expressing cells are quantitated by light microscopy.
The results of comparisons of infectious units with or without various concentrations of the bis-benzimididazoles drugs in the magic cell assay are expressed as IC50 values and are compiled in Table 2 above. Note that the best anti-HIV compounds (B-D) were also the best integrase inhibitors, except for compound A, which could not be accurately measured due to its substrate aggregating properties.

Magic cells [4] = assay: Growth rate in the presence of test compound; assay type: cell-based
Procedure: as §3
The most sensitive test employed measurements of growth rates for the cells in the presence of the test compound. Although the anti-viral assay used was one that assessed early times of the viral life cycle, this test was carried out for 15 days, with counting of cell numbers in cultures performed every other day during this time.

Magic cells [5] = assay: Plating efficiency test; assay type: cell-based; conditions: at the concentrations at which anti-viral effects were observed
Procedure: Next, a plating efficiency test measured the ability of the cell to grow after incubation with drug for a number of days. Magic cells were grown from an initial cell concentration of 0.8×104 with or without various concentrations of test compound for 6 days. Plating ability of the cells was assessed by plating dilutions of each culture on plastic. Colony forming units were determined after growth for two to four days by counting colonies after staining the plates. Each sample was plated in duplicate and the colony number averaged.
Another test of cellular effects by the compounds was a measure of plating efficiency of the cells after incubation with various concentrations of test agents. This will assess the actual killing of the cells by the drugs. The IC50 values are expected to be much higher in this test.

HIV-1 [6] = assay: Standard reinfection assay of antiviral activity; assay type: cell-based; conditions: Human immunodeficiency virus 1
Procedure: In addition, the assessment of antiviral activity as measured by the standard reinfection assay was performed for compound B. The IC50 for compound B in this assay was 10-30 μM. This confirms that the Magic cell assay is suitable for screening potential integrase inhibitors with good antiviral activity.

[7] = Integrase Cleavage IC50, % cleavage of the substrate compared to control
[8] = Integrase Strand Transfer IC50, joining part of the integrase reaction

SMILES | XTT assay toxicity value (Magic cells [1]) [µM] | IC50 at 2 days [2] [µM] | IC50 (HIV-1 integrase; [7]) [µM] | IC50 (HIV-1 integrase; [8]) [µM] | Concentration at which aggregation of the substrate starts (HIV-1 integrase; integrase assay substrate) [µM] | IC50 (HIV-1 [3]) [µM] | Effect on growth rate of the cell line (Magic cells [4]; concentration that inhibited 50% of the viral integration events, up to two weeks) | Effect on growth rate of the cells (Magic cells [4]; higher concentrations, 15 days test) | Effect on Magic cell plating efficiency (Magic cells [5]) | IC50 (HIV-1 [6]) [µM] | IC50 at 2 days ([2]; Magic cells, read-out: Magic Cells Toxicity IC50) [µM]
N=C(N)c1ccc2nc(C=Cc3nc4ccc(C(=N)N)cc4[nH]3)[nH]c2c1 [Compound A, 1,2-bis[5-amidino-2-benzimidazolyl]ethene] | ≥ 500 | > 500 | 11 | 11.5 | 10 | 48 | – | – | – | – | –
CC(C)NC(=N)c1ccc2nc(C=Cc3nc4ccc(C(=N)NC(C)C)cc4[nH]3)[nH]c2c1 [Compound B, 1,2-bis[5-isopropylamidino-2-benzimidazolyl]ethene] | ≥ 500 | 473 | 61 | 19 | – | 10 to 30 | no effect on the growth rate | did effect the growth rate | no effect | 10 to 30 | –
N=C(N)c1ccc2nc(Cc3nc4ccc(C(=N)N)cc4[nH]3)[nH]c2c1 [D, bis[5-amidino-2-benzimidazolyl]methane] | – | – | – | – | – | 7 | – | – | – | – | 175
N=C(N)c1ccc2[nH]c(Cc3nc4cc(C5=NCCN5)ccc4[nH]3)nc2c1 [E, (5-Amidino-2-benzimidazolyl)-(5′-(2-imidazolinyl)-2′-benzimidazolyl)methane] | – | 65 | > 100 | 122 | – | 16 | – | – | – | – | –
